Columns and labels:
[1] = system: Human gastric cancer cells (MKN-45); test: Inhibitory activity against the proliferation of human gastric cancer cells (MKN-45); assay type: cell-based; details: 72 h, read-out: IC50 (concentration necessary to inhibit the cell proliferation by 50%), MKN-45 cells, 1% FBS-containing RPMI1640, 3 days, Cell Counting Kit-8
Method: Human gastric cancer cells (MKN-45) were suspended in a 1% FBS-containing RPMI1640 medium (purchased from Sigma). The cell suspension (1×10^4 cells/ml) was added in a 96-well plate for cell culture (purchased from NUNC, Production No. 167008) at 0.1 ml/well, and then cultured in a 5% CO2 incubator (37° C.) overnight. After the culture, each well was supplied with 0.1 ml of a test substance diluted with a 1% FBS-containing RPMI1640 medium, followed by culturing in a 5% CO2 incubator (37° C.) for 3 days. After the culture, each well was supplied with 10 μl of Cell Counting Kit-8 (purchased from DOJINDO, Production No. 343-07623), followed by incubation in a 5% CO2 incubator (37° C.) for about 1.5 hrs. After the incubation, using the Plate Reader MTP-500 (Corona Electric), the absorbance of each well was determined at a measurement wavelength of 450 nm and a reference wavelength of 660 nm.

HGFR [2] = biological target: T1, HGFR (Homo sapiens, UniProt P08581); test: Inhibitory activity against the HGFR autophosphorylation using ELISA; assay type: cell-based; design: endogenous in cells; host or cells: MKN-45 human gastric cancer cells; details: MKN-45 cells, test substance 1 hr, cell extract
Method: Human gastric cancer cells (MKN-45) were suspended in a 1% FBS-containing RPMI1640 medium (purchased from Sigma). […] After the culture, from each well was removed the supernatant, followed by adding 0.05 ml of a 1% FBS-containing RPMI1640 medium. Then, the well was supplied with 0.05 ml of the test substance dissolved in dimethyl sulfoxide (diluted with a 1% FBS-containing RPMI1640 medium), followed by culturing in a 5% CO2 incubator (37° C.) for 1 hr. From each well was removed the supernatant, and each well was washed with 150 μl of PBS, followed by adding 100 μl of a lysis buffer (50 mM Hepes (pH 7.4), 150 mM NaCl, 10% (v/v) glycerol, 1% Triton X-100, 1.5 mM MgCl2, 1 mM EDTA (pH 8.0), 100 mM NaF, 1 mM PMSF, 10 μg/ml Aprotinin, 50 μg/ml Leupeptin, 1 μg/ml Pepstatin A and 1 mM Na3VO4). The plate was shaken at 4° C. for 1 hr to prepare the cell extract.
To a 96-well plate for ELISA (purchased from COSTAR, Production No. 3369) was added 50 μl of 60 mM bicarbonate buffer (pH 9.6) containing 50 μg/ml of an anti-phosphotyrosine antibody (PY20, purchased from Transduction Laboratory, Production No. P-11120). The plate was incubated at 4° C. overnight.
Each well of the plate prepared in 2. was washed three times with 200 μl of PBS, and supplied with 150 μl of 3% BSA/PBS, followed by incubating at room temperature for 2 hrs. Each well was washed three times with 200 μl of PBS, and supplied with 50 μl of the above cell extract, followed by incubating at 4° C. overnight. After the incubation, each well was washed three times with 250 μl of a washing solution (0.1% BSA, 20 mM Tris-HCl (pH 7.6), 137 mM NaCl, and 0.05% Tween-20), and supplied with 70 μl of anti-HGFR antibody (h-Met(C-12), purchased from Santa Cruz, Production No. sc-10) 2,000-fold diluted with a reaction solution (1% BSA, 20 mM Tris-HCl (pH 7.6), 137 mM NaCl and 0.05% Tween-20), followed by incubating at room temperature for 1 hr. The well was washed three times with 250 μl of the washing solution, and supplied with 70 μl of peroxidase-labelled anti-rabbit IgG antibody (purchased from Cell Signaling, Production No. 7074) 2,000-fold diluted with the reaction solution, followed by incubating at room temperature for 1 hr. […] Each well was supplied with 70 μl of 1 M phosphoric acid, and using the Plate Reader MTP-500 (Corona Electric), the absorbance of the well was instantly determined at a measurement wavelength of 450 nm. While defining the absorbance of a well supplied with the cell extract having no test substance as 100% HGFR autophosphorylation activity, and the absorbance of a well supplied with 50 μl of the lysis buffer as 0% HGFR autophosphorylation activity, the HGFR autophosphorylation activity (%) was calculated for each well.
Target sequence in this assay (P08581 25-1390): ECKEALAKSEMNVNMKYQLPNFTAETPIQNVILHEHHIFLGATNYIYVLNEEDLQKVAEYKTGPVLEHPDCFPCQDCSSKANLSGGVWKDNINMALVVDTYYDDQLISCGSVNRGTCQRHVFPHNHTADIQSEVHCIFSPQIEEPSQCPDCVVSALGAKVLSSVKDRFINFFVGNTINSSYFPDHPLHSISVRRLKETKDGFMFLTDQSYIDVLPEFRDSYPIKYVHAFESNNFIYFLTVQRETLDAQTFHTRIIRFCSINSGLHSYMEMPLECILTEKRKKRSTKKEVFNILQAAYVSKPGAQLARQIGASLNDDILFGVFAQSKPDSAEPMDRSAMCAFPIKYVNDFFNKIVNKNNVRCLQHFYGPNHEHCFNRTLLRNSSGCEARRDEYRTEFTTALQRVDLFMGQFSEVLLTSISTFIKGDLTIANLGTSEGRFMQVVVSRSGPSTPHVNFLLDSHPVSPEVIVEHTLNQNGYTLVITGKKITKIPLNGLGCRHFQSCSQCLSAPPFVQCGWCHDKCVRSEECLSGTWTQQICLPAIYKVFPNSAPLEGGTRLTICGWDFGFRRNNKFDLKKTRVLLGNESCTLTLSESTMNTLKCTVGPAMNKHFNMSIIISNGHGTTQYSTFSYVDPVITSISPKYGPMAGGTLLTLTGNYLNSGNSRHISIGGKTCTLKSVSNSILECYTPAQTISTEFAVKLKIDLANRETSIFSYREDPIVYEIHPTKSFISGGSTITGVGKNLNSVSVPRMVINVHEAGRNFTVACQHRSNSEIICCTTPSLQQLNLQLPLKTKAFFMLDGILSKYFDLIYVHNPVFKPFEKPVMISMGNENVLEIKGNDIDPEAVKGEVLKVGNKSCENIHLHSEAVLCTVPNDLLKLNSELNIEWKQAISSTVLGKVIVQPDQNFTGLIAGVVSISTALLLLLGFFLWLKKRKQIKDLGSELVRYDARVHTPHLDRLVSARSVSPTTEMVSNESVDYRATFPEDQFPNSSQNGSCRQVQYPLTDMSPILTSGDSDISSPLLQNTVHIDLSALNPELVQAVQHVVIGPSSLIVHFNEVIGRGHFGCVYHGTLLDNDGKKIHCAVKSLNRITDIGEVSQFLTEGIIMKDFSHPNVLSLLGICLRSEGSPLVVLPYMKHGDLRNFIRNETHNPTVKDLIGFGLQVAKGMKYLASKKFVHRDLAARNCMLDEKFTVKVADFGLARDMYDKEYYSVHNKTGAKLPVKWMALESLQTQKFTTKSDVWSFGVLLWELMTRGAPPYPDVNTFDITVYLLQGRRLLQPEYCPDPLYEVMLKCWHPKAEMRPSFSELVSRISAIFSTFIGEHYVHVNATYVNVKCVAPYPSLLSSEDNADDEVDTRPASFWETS

HGFR [3] = biological target: T1, HGFR; test: Inhibitory activity against HGFR tyrosine kinase activity (HTRF); assay type: biochemical; design: His6-HGFR, the HGFR cytoplasmic domain fused with six histidine at the N terminus; made in house; host or cells: Sf9 insect cells (baculovirus, pFastBac-HT); details: His6-HGFR cytoplasmic domain, biotin-poly(GT) substrate, ATP, 30° C. for 10 min
Description: The DNA fragment was isolated from the human placental cDNA library (purchased from Clontech) by PCR (TaKaRa Ex Taq™ Kit, purchased from TaKaRa) using two kinds of primers (SEQ ID NO: 1,5′-[…]-3′ and SEQ ID NO: 2,5′-[…]-3′, purchased from Invitrogen). The DNA fragment was cloned into a baculovirus transplace vector (pFastBac™-HT (purchased from GIBCO BRL)) to produce a recombinant construct. […] EGFR was purchased from Sigma (Production No. E-2645).
To the suspension of Sf9 cells (3×10^8 cells) in SF-900II medium (purchased from Invitrogen) containing 2% FBS was added a solution of HGFR transfected baculovirus above (4 ml), followed by a shaking culture at 27° C. for 48 hrs. The cells infected with the HGFR transfected baculovirus were centrifuged at 1,000 rpm, 4° C. for 5 min to remove the supernatant. The precipitated infected cells were suspended in 80 ml of ice-cold PBS, and centrifuged at 1,000 rpm, 4° C. for 5 min to remove the supernatant. The precipitated infected cells were suspended in 40 ml of ice-cold Lysis Buffer (50 mM Tris-HCl (pH 8.5), 5 mM 2-mercaptoethanol, 100 mM KCl, 1 mM PMSF and 1% (v/v) NP-40). The suspension was centrifuged at 12,000 rpm, 4° C. for 30 min to provide a supernatant.
The supernatant was loaded onto an Ni-NTA agarose column (3 ml, purchased from Qiagen) equilibrated with 30 ml of Buffer A (20 mM Tris-HCl (pH 8.5), 5 mM 2-mercaptoethanol, 500 mM KCl, 20 mM imidazole and 10% (v/v) glycerol). The column was washed with 30 ml of Buffer A, 6 ml of Buffer B (20 mM Tris-HCl (pH 8.5), 5 mM 2-mercaptoethanol, 1 M KCl, and 10% (v/v) glycerol) and 6 ml of Buffer A in this order. Then, the column was eluted with 6 ml of Buffer C (20 mM Tris-HCl (pH 8.5), 5 mM 2-mercaptoethanol, 100 mM KCl, 100 mM imidazole, and 10% (v/v) glycerol) to provide a fraction. The fraction was entrapped in a dialysis membrane (purchased from Spectrum Laboratories), dialyzed at 4° C. overnight with 1 L of dialysis buffer (20 mM Tris-HCl (pH 7.5), 10% (v/v) glycerol, 1 mM dithiothreitol, 0.1 mM Na3VO4 and 0.1 mM EGTA), and stored at −80° C. until used. […] The VEGFR2 cytoplasmic domain, the FGFR1 cytoplasmic domain, and the PDGFRβ cytoplasmic domain were fused with six histidine at the N terminus by the similar method to produce respective recombinant proteins (His6-VEGFR2, His6-FGFR1, and His6-PDGFRβ).
The tyrosine-phosphorylated biotin-poly(GT) was detected using the Homogenous Time-Resolved Fluorescence (HTRF) method (Analytical Biochemistry, 269, 94-104, 1999).
Target sequence in this assay (P08581 956-1390 limits assumed): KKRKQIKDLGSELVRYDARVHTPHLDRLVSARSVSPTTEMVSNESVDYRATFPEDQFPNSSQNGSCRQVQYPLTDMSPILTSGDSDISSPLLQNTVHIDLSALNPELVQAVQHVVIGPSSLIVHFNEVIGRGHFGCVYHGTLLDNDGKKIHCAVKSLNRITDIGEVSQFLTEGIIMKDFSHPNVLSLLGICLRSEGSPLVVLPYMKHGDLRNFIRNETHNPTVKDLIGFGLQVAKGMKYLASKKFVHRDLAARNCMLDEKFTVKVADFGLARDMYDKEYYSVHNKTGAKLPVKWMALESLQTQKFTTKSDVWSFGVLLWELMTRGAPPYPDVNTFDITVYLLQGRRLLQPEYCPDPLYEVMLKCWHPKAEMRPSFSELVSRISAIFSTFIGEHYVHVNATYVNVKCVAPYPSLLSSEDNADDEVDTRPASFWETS

| SMILES | IC50 [1] | IC50 (HGFR [2]) | IC50 (HGFR [3]) |
| --- | --- | --- | --- |
| CN1CCN(C2CCN(C(=O)Nc3cc(Oc4ccc(NC(=O)C5(C(=O)Nc6ccc(F)cc6)CC5)c(F)c4)ccn3)CC2)CC1 [Example 9, N-(2-Fluoro-4-{[2-({[4-(4-methylpiperazin-1-yl)piperidin-1-yl]carbonyl}amino)pyridin-4-yl]oxy}phenyl)-N′-(4-fluorophenyl)cyclopropane-1,1-dicarboxamide] | 17 nM | – | – |
| O=C(Nc1cc(Oc2cc(F)c(NC(=O)C3(C(=O)Nc4ccc(F)cc4)CC3)cc2F)ccn1)N1CC(O)C1 [Example 16, N-{2,5-Difluoro-4-[(2-{[(3-hydroxyazetidin-1-yl)carbonyl]amino}pyridin-4-yl)oxy]phenyl}-N′-(4-fluorophenyl)cyclopropane-1,1-dicarboxamide] | 5 nM | 8.4 nM | 4 nM |
| CN1CCC(N(C)C(=O)Nc2cc(Oc3cc(F)c(NC(=O)C4(C(=O)Nc5ccc(F)cc5)CC4)cc3F)ccn2)CC1 [Example 19] | 4.9 nM | 11 nM | 49 nM |

The next compounds have a lower IC50 [1] than those just listed; values first:

| IC50 [1] | IC50 (HGFR [2]) | IC50 (HGFR [3]) | SMILES |
| --- | --- | --- | --- |
| 2.4 nM | 4.5 nM | 16 nM | O=C(Nc1cc(Oc2cc(F)c(NC(=O)C3(C(=O)Nc4ccc(F)cc4)CC3)cc2F)ccn1)N1CC[C@H](O)C1 [Example 22, N-{2,5-Difluoro-4-[(2-{[((S)-3-hydroxypyrrolidin-1-yl)carbonyl]amino}pyridin-4-yl)oxy]phenyl}-N′-(4-fluorophenyl)cyclopropane-1,1-dicarboxamide] |
| 2.2 nM | 3.4 nM | 10 nM | O=C(Nc1cc(Oc2cc(F)c(NC(=O)C3(C(=O)Nc4ccc(F)cc4)CC3)cc2F)ccn1)N1CC[C@@H](O)C1 [Example 25, N-{2,5-Difluoro-4-[(2-{[((R)-3-hydroxypyrrolidin-1-yl)carbonyl]amino}pyridin-4-yl)oxy]phenyl}-N′-(4-fluorophenyl)cyclopropane-1,1-dicarboxamide] |

Reference: patent publication US7790885B2, “Process for preparing phenoxypyridine derivatives” (Eisai R&D Management Co., Ltd., priority 2006, dated 2010)
